Test results from BindingDB's records for doi:10.1016/j.bmcl.2011.01.024 (Amira Pharmaceuticals, 2011).

Assay: Inhibition of human prostanoid DP2 receptor in human whole bood assessed as eosinophil shape change preincubated for 15 mins before addition of PGD2 measured after 5 mins by FACS analysis

| SMILES | IC50 |
| --- | --- |
| CCN(Cc1cc(C(F)(F)F)ccc1-c1cc(CC(=O)O)ccc1OC)C(=O)OCc1ccc(Cl)cc1 | 6 nM |
| CCN(Cc1cc(C(F)(F)F)ccc1-c1cc(CC(=O)O)ccc1OC)C(=O)OCc1ccccc1Cl | 7 nM |
| CCN(Cc1cc(C(F)(F)F)ccc1-c1cc(CC(=O)O)ccc1OC)C(=O)OCc1cccc(Cl)c1 | 7 nM |
| CCN(Cc1cc(C(F)(F)F)ccc1-c1cc(CC(=O)O)ccc1OC)C(=O)OCc1cc(F)cc(F)c1 | 5 nM |
| CCN(Cc1cc(C(F)(F)F)ccc1-c1cc(CC(=O)O)ccc1OC)C(=O)OC | 8 nM |

More lines, now with the values ahead:

| IC50 | SMILES |
| --- | --- |
| 34 nM | COC(=O)N(CCc1ccccc1)Cc1cc(C(F)(F)F)ccc1-c1cc(CC(=O)O)ccc1OC |
| 22 nM | COC(=O)N(Cc1ccccc1)Cc1cc(C(F)(F)F)ccc1-c1cc(CC(=O)O)ccc1OC |
| 709 nM | COc1ccc(CC(=O)O)cc1-c1ccc(C(F)(F)F)cc1CNC(=O)OCc1ccccc1 |
| 9 nM | COc1ccc(CC(=O)O)cc1-c1ccc(C(F)(F)F)cc1CN(C)C(=O)OCc1ccccc1 |
